Among the data in patent US20140255392A1 (BAYER INTELLECTUAL PROPERTY GMBH, priority 2011, published 2014) are IC50 values, retold here.

Structures are written as SMILES.

This assay concerns the target T1, human kinase Mps-1 (Homo sapiens, UniProt P33981).
T1 construct: N-terminally GST-tagged human full length recombinant Mps-1 kinase; GST (N); purchased Invitrogen, Karslruhe, Germany PV4071
T1 sequence (P33981 1-857): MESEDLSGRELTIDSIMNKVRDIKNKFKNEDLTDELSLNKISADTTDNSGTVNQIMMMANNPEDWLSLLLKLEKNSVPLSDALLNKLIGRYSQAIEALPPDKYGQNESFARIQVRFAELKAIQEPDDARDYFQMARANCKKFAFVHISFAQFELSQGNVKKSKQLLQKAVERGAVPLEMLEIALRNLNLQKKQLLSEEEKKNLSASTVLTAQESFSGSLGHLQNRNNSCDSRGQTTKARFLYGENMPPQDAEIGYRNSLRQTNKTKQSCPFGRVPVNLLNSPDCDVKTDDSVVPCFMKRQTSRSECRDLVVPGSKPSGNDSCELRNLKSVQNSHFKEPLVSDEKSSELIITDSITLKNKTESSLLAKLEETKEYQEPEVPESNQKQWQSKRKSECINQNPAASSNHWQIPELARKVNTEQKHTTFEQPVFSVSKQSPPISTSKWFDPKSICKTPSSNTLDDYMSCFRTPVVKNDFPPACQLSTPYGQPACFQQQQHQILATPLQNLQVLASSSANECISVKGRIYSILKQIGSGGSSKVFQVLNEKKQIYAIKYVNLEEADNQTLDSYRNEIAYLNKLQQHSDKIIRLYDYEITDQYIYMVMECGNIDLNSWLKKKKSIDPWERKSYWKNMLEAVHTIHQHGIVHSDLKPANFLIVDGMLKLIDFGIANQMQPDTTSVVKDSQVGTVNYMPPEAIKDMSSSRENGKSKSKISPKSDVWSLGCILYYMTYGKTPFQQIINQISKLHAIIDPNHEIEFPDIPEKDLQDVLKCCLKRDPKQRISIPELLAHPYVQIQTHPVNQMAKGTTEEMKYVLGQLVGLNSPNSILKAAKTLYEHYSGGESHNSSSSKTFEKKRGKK
The assay can be described thus: Mps-1 kinase assay (TR-FRET). Particulars: N-terminally GST-tagged human full length recombinant Mps-1; 10 μM ATP; 1 μM peptide substrate; 60 min at 22° C. It is filed as biochemical. In a few lines:
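Inhibition of Mps-1 (N-terminal GST fusion, full length) toward a biotinylated peptide is read as Eu-to-XLent TR-FRET. Enzyme level, around 1 nM final, follows lot activity.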
For the compound `C=Cc1cc(NCCC(F)(F)F)c2ncc(-c3ccc(C(=O)NC4(C)CC4)c(C)c3)n2c1` [Example 95, 2-Methyl-N-(1-methylcyclopropyl)-4-{8-[(3,3,3-trifluoropropyl)amino]-6-vinylimidazo[1,2-a]pyridin-3-yl}benzamide], the IC50 was 140 nM.
The same measure for `C=Cc1cc(NCCC(F)(F)F)c2ncc(-c3ccc(C(=O)NC4(C#N)CC4)c(C)c3)n2c1` [Example 96, N-(1-cyanocyclopropyl)-2-methyl-4-{8-[(3,3,3-trifluoropropyl)amino]-6-vinylimidazo[1,2-a]pyridin-3-yl}benzamide]: 123 nM; for `CCc1cc(NCCC(F)(F)F)c2ncc(-c3ccc(C(=O)NC4CC4)c(C)c3)n2c1` [Example 99]: 13.3 nM; for `CCc1cc(NCCC(F)(F)F)c2ncc(-c3ccc(C(=O)NC)c(C)c3)n2c1` [Example 100, 4-{6-Ethyl-8-[(3,3,3-trifluoropropyl)amino]imidazo[1,2-a]pyridin-3-yl}-N,2-dimethylbenzamide]: 106 nM.
The result for `CCNC(=O)c1ccc(-c2cnc3c(NCCC(F)(F)F)cc(CC)cn23)cc1C` [Example 101, N-ethyl-4-{6-ethyl-8-[(3,3,3-trifluoropropyl)amino]imidazo[1,2-a]pyridin-3-yl}-2-methylbenzamide] reads 123 nM; that for `CCc1cc(NCCC(F)(F)F)c2ncc(-c3ccc(C(=O)NC4(C)CC4)c(C)c3)n2c1` [Example 102, 4-{6-Ethyl-8-[(3,3,3-trifluoropropyl)amino]imidazo[1,2-a]pyridin-3-yl}-2-methyl-N-(1-methylcyclopropyl)benzamide], 131 nM.
Turning to `CCc1cc(NCCC(F)(F)F)c2ncc(-c3ccc(C(=O)NC4(C#N)CC4)c(C)c3)n2c1` [Example 103], the IC50 was found to be 156 nM.
For the compound `CNC(=O)c1ccc(-c2cnc3c(NCCC(F)(F)F)cc(Oc4ccc(OC)c(F)c4)cn23)cc1C` [Example 106, 4-{6-(3-Fluoro-4-methoxyphenoxy)-8-[(3,3,3-trifluoropropyl)amino]imidazo[1,2-a]pyridin-3-yl}-N,2-dimethylbenzamide], the IC50 is 1.6 nM.
The same measure for `CCNC(=O)c1ccc(-c2cnc3c(NCCC(F)(F)F)cc(Oc4ccc(OC)c(F)c4)cn23)cc1C` [Example 107, N-ethyl-4-{6-(3-fluoro-4-methoxyphenoxy)-8-[(3,3,3-trifluoropropyl)amino]imidazo[1,2-a]pyridin-3-yl}-2-methylbenzamide]: 1.8 nM; for `Cc1cc(-c2cnc3c(NCCC(F)(F)F)cc(Oc4ccc(OCc5ccccc5)cc4)cn23)ccc1C(=O)NC1CC1` [Example 109, 4-{6-[4-(benzyloxy)phenoxy]-8-[(3,3,3-trifluoropropyl)amino]imidazo[1,2-a]pyridin-3-yl}-N-cyclopropyl-2-methylbenzamide]: 17.8 nM; for `Cc1cc(-c2cnc3c(NCCC(F)(F)F)cc(Oc4ccc(O)cc4)cn23)ccc1C(=O)NC1CC1` [Example 110, N-cyclopropyl-4-{6-(4-hydroxyphenoxy)-8-[(3,3,3-trifluoropropyl)amino]imidazo[1,2-a]pyridin-3-yl}-2-methylbenzamide]: 0.6 nM.
With `C/C=C/c1cc(NCCC(F)(F)F)c2ncc(-c3ccc(C(=O)NC4CC4)c(C)c3)n2c1` [Example 111, N-cyclopropyl-2-methyl-4-{6-[(1E)-prop-1-en-1-yl]-8-[(3,3,3-trifluoropropyl)amino]imidazo[1,2-a]pyridin-3-yl}benzamide], the IC50 stood at 5.8 nM.
Turning to `C/C=C/c1cc(NCCC(F)(F)F)c2ncc(-c3ccc(C(=O)NC)c(C)c3)n2c1` [Example 112, N,2-dimethyl-4-{6-[(1E)-prop-1-en-1-yl]-8-[(3,3,3-trifluoropropyl)amino]imidazo[1,2-a]pyridin-3-yl}benzamide], the IC50 amounted to 21.8 nM.
Take `C/C=C/c1cc(NCCC(F)(F)F)c2ncc(-c3ccc(C(=O)NCC)c(C)c3)n2c1` [Example 113, N-ethyl-2-methyl-4-{6-[(1E)-prop-1-en-1-yl]-8-[(3,3,3-trifluoropropyl)amino]imidazo[1,2-a]pyridin-3-yl}benzamide]: the IC50 amounted to 45.1 nM.
In the case of `C/C=C/c1cc(NCCC(F)(F)F)c2ncc(-c3ccc(C(=O)NC4(C)CC4)c(C)c3)n2c1` [Example 114, 2-Methyl-N-(1-methylcyclopropyl)-4-{6-[(1E)-prop-1-en-1-yl]-8-[(3,3,3-trifluoropropyl)amino]imidazo[1,2-a]pyridin-3-yl}benzamide], the IC50 stood at 75.3 nM.
On to `C/C=C/c1cc(NCCC(F)(F)F)c2ncc(-c3ccc(C(=O)NC4(C#N)CC4)c(C)c3)n2c1` [Example 115, N-(1-cyanocyclopropyl)-2-methyl-4-{6-[(1E)-prop-1-en-1-yl]-8-[(3,3,3-trifluoropropyl)amino]imidazo[1,2-a]pyridin-3-yl}benzamide], for which the IC50 amounted to 59.4 nM.
The same measure for `CNC(=O)c1ccc(-c2cnc3c(NCCC(F)(F)F)cc(/C=C\CO)cn23)cc1C` [Example 119, 4-{6-[(1Z)-3-hydroxyprop-1-en-1-yl]-8-[(3,3,3-trifluoropropyl)amino]imidazo[1,2-a]pyridin-3-yl}-N,2-dimethylbenzamide]: 54.7 nM; for `CCNC(=O)c1ccc(-c2cnc3c(NCCC(F)(F)F)cc(/C=C\CO)cn23)cc1C` [Example 120, N-ethyl-4-{6-[(12)-3-hydroxyprop-1-en-1-yl]-8-[(3,3,3-trifluoropropyl)amino]imidazo[1,2-a]pyridin-3-yl}-2-methylbenzamide]: 42.2 nM; for `CNC(=O)c1ccc(-c2cnc3c(NCC4CCOCC4)cc(Oc4ccc(OC)c(F)c4)cn23)cc1C` [Example 121, 4-{6-(3-Fluoro-4-methoxyphenoxy)-8-[(tetrahydro-2H-pyran-4-ylmethyl)amino]imidazo[1,2-a]pyridin-3-yl}-N,2-dimethylbenzamide]: 1.5 nM.
In the case of `CCNC(=O)c1ccc(-c2cnc3c(NCC4CCOCC4)cc(Oc4ccc(OC)c(F)c4)cn23)cc1C` [Example 122, N-ethyl-4-{6-(3-fluoro-4-methoxyphenoxy)-8-[(tetrahydro-2H-pyran-4-ylmethyl)amino]imidazo[1,2-a]pyridin-3-yl}-2-methylbenzamide], the IC50 came out at 1.9 nM.
With `COc1ccc(Oc2cc(NCC3CCOCC3)c3ncc(-c4ccc(C(=O)NC5CC5)c(C)c4)n3c2)cc1F` [Example 123, N-cyclopropyl-4-{6-(3-fluoro-4-methoxyphenoxy)-8-[(tetrahydro-2H-pyran-4-ylmethyl)amino]imidazo[1,2-a]pyridin-3-yl}-2-methylbenzamide], the 50% inhibitory concentration (IC50) stood at 0.8 nM.
On to `CNC(=O)c1ccc(-c2cnc3c(NCCC(F)(F)F)cc(CCCO)cn23)cc1C` [Example 126, 4-{6-(3-hydroxypropyl)-8-[(3,3,3-trifluoropropyl)amino]imidazo[1,2-a]pyridin-3-yl}-N,2-dimethylbenzamide], for which the IC50 turned out to be 146 nM.
For `CCNC(=O)c1ccc(-c2cnc3c(NCCC(F)(F)F)cc(CCCO)cn23)cc1C` [Example 127, N-ethyl-4-{6-(3-hydroxypropyl)-8-[(3,3,3-trifluoropropyl)amino]imidazo[1,2-a]pyridin-3-yl}-2-methylbenzamide], the IC50 was 62.5 nM.
The result for `Cc1cc(-c2cnc3c(NCCC(F)(F)F)cc(CCCO)cn23)ccc1C(=O)NC1CC1` [Example 128, N-cyclopropyl-4-{6-(3-hydroxypropyl)-8-[(3,3,3-trifluoropropyl)amino]imidazo[1,2-a]pyridin-3-yl}-2-methylbenzamide] reads 9.5 nM; that for `Cc1cc(-c2cnc3c(NCCC(F)(F)F)cc(Oc4ccc(O)c(F)c4)cn23)ccc1C(=O)NC1CC1` [Example 129, N-cyclopropyl-4-{6-(3-fluoro-4-hydroxyphenoxy)-8-[(3,3,3-trifluoropropyl)amino]imidazo[1,2-a]pyridin-3-yl}-2-methylbenzamide], 0.5 nM; that for `CNC(=O)c1ccc(-c2cnc3c(NCCC(F)(F)F)cc(Oc4ccc(O)c(F)c4)cn23)cc1C` [Example 130, 4-{6-(3-Fluoro-4-hydroxyphenoxy)-8-[(3,3,3-trifluoropropyl)amino]imidazo[1,2-a]pyridin-3-yl}-N,2-dimethylbenzamide], 0.9 nM.
For the compound `CCNC(=O)c1ccc(-c2cnc3c(NCCC(F)(F)F)cc(Oc4ccc(O)c(F)c4)cn23)cc1C` [Example 131, N-ethyl-4-{6-(3-fluoro-4-hydroxyphenoxy)-8-[(3,3,3-trifluoropropyl)amino]imidazo[1,2-a]pyridin-3-yl}-2-methylbenzamide], the IC50 was determined as 1.4 nM.
